Counter-ions that a name gives are not always drawn.
Each molecule was assayed against T1, Human EGF receptor tyrosine kinase (Homo sapiens, UniProt P00533) (assay: EGF receptor tyrosine kinase inhibition (phosphorylation of PLC-gamma 1 derived peptide)). Conditions: not given.
T1 construct: isolated from A431 human epidermoid carcinoma cells which overexpress EGF receptor; endogenous in cells; host or cells: A431 human epidermoid carcinoma cells; purified from the lysate on wheat germ agglutinin sepharose
T1 sequence (P00533 25-1210): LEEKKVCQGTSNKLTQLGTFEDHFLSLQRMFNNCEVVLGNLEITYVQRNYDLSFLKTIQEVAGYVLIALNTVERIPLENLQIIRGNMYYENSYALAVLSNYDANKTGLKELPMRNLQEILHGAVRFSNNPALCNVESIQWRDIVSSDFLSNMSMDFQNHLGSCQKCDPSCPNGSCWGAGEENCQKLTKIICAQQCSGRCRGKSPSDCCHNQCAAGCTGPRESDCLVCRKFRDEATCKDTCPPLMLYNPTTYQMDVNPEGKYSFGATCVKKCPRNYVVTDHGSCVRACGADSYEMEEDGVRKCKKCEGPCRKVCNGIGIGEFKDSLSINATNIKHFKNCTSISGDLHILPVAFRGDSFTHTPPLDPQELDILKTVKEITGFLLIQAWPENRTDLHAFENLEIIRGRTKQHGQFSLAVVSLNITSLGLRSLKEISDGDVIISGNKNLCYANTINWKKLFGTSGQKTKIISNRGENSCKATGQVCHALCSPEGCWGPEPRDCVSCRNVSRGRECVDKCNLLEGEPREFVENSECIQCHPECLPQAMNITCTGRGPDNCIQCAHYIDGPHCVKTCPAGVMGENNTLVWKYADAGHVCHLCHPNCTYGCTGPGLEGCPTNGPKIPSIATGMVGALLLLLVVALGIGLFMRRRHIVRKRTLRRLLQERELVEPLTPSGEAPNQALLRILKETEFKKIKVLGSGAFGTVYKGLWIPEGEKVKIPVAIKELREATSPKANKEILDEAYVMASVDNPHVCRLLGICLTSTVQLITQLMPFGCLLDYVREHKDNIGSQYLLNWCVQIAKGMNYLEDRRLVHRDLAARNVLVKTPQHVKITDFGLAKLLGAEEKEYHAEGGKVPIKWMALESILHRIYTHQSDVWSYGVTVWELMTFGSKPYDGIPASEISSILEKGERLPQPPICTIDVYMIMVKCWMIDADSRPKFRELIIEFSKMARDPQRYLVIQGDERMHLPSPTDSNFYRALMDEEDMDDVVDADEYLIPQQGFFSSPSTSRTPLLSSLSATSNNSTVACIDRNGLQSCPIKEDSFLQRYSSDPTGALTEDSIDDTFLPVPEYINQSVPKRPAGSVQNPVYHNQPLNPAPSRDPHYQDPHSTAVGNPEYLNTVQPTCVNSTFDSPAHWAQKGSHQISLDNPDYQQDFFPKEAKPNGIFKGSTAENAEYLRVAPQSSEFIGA
Assay type: biochemical
Method: Purification of Epidermal Growth Factor Receptor Tyrosine Kinase—Human EGF receptor tyrosine kinase was isolated from A431 human epidermoid carcinoma cells which overexpress EGF receptor by the following methods. Cells were grown in roller bottles in 50% Delbuco's Modified Eagle and 50% HAM F-12 nutrient media (Gibco) containing 10% fetal calf serum. Approximately 10^9 cells were lysed in two volumes of buffer containing 20 mM 2-(4N-[2-hydroxyethyl]piperazin-1-yl)ethanesulfonic acid (hepes), pH 7.4, 5 mM ethylene glycol bis(2-aminoethyl ether) N,N,N′,N′-tetraacetic acid, 1% Triton X-100, 10% glycerol, 0.1 mM sodium orthovanadate, 5 mM sodium fluoride, 4 mM pyrophosphate, 4 mM benzamide, 1 mM dithiothreitol, 80 μg/mL aprotinin, 40 μg/mL leupeptin and 1 mM phenylmethylsulfonyl fluoride. After centrifugation at 25,000×g for 10 minutes, the supernatant was equilibrated for 2 h at 4° C. with 10 mL of wheat germ agglutinin sepharose that was previously equilibrated with 50 mM Hepes, […], 0.1% Triton X-100 and 150 mM NaCl, pH 7.5, (equilibration buffer). Contaminating proteins were washed from the resin with 1 M NaCl in equilibration buffer, and the enzyme was eluted with 0.5 M N-acetyl-1-D-glucosamine in equilibration buffer, followed by 1 mM urea. The enzyme was eluted with 0.1 mg/ml EGF.
The reaction was terminated by the addition of 2 mL of […] phosphoric acid and passed through a 2.5 cm phosphocellulose filter disc to bind the peptide. The filter was washed five times with 75 mM phosphoric acid and placed in a vial along with 5 mL of scintillation fluid (Ready gel Beckman).

IC50 [nM] | SMILES
36 | Brc1cccc(Nc2ncnc3sccc23)c1 [Example 73, 4-(3-Bromoanilino)thieno[2,3-d]pyrimidine]
11 | Brc1cccc(Nc2ncnc3ccsc23)c1 [Example 71, 4-(3-Bromoanilino)thieno[3,2-d]pyrimidine Hydrochloride]
3600 | c1ccc(CNc2ncnc3cccnc23)cc1 [Example 2, 4-Benzylaminopyrido[3,2-d]pyrimidine]

Same assay, conditions: Table 1, values in nM; read-out: EGF Receptor Tyrosine Kinase Inhibition IC50

SMILES | IC50 [nM]
CC(=O)Nc1cc2ncnc(Nc3cccc(Br)c3)c2cn1 [Example 36, 7-Acetylamino-4-(3-bromoanilino)pyrido[4 3-d]pyrimidine] | 29
CNc1cc2ncnc(N(C)c3cccc(Br)c3)c2cn1 [Example 35, 4-[N-(3-Bromophenyl)-N-methylaminol-7-methylaminopyrido 4,3-d]pyrimidine] | 3.1
Fc1cc2ncnc(Nc3cccc(Br)c3)c2cn1 [Example 12, 4-(3-Bromoanilino)-7-fluoropyrido[4,3-d]pyrimidine] | 13
Fc1cc2c(Nc3cccc(Br)c3)ncnc2cn1 [Example 57, 4-(3-Bromoanilino)-6-fluoropyrido[3,4-d]pyrimidine] | 124
Brc1cccc(Nc2ncnc3ccncc23)c1 [Example 11, 4-(3-Bromoanilino)pyrido[4,3-d]pyrimidine] | 194
Clc1cc2c(Nc3cccc(Br)c3)ncnc2cn1 [Example 58, 4-(3-Bromoanilino)-6-chloropyrido[3,4-d]pyrimidine] | 40
Brc1cccc(Nc2ncnc3[nH]cnc23)c1 [Example 75, N^6-(3-Bromophenyl)adenine] | 55
Fc1ccc2c(Nc3cccc(Br)c3)ncnc2n1 [Example 64, 4-(3-Bromoanilino)-7-fluoropyrido[2,3-d]pyrimidine] | 11
CC(=O)Nc1cc2ncnc(NCc3ccccc3)c2cn1 [Example 54, 7-Acetylamino-4-benzylaminozpyrido[4,3-d]pyrimidine] | 100
COc1ccc2ncnc(Nc3cccc(Br)c3)c2n1 [Example 9, 4-(3-Bromoanilino)-6-methoxypyrido[3,2-d]pyrimidine] | 405
c1ccc(Nc2ncnc3cnccc23)cc1 [Example 55, 4-Anilinopyrido[3,4-d]pyrimidine] | 400
Brc1cccc(Nc2ncnc3cnccc23)c1 [Example 56, 4-(3-Bromoanilino)pyrido[3,4-d]pyrimidine] | 110
Brc1cccc(Nc2ncnc3cnc(N4CCCCC4)cc23)c1 [Example 79, 4-(3-Bromoanilino)-6-(piperidin-1-yl)pyrido[3,4-d]pyrimidine] | 6.7
COc1ccc2c(Nc3cccc(Br)c3)ncnc2n1 [Example 68, 4-(3-Bromoanilino)-7-methoxypyrido[2,3-d]pyrimidine] | 263

The next lines start with the values.

IC50 [nM] | SMILES
840 | Nc1cc2ncnc(Nc3cccc(F)c3)c2cn1 [Example 23, 7-Amino-4-(3-fluoroanilino)pyrido[4,3-d]pyrimidine]
241 | Nc1cc2ncnc(Nc3ccccc3Br)c2cn1 [Example 26, 7-Amino-4-(2-bromoanilino)pyrido[4,3-d]pyrimidine]
670 | COc1ccc(Nc2ncnc3cc(N)ncc23)cc1 [Example 78, 7-Amino-4-(4-methoxyanilino)pyrido[4,3-d]pyrimidine]
173 | Nc1ccc(Nc2ncnc3cc(N)ncc23)cc1 [Example 18, 7-Amino-4-(4-aminoanilino)pyrido[4,3-d]pyrimidine]
226 | Nc1cc2ncnc(NCc3ccccc3N)c2cn1 [Example 42, 7-Amino-4-(2-aminobenzylamino)pyrido[4,3-d]pyrimidine]
250 | Nc1cc2ncnc(Nc3ccccc3)c2cn1 [Example 13, 7-Amino-4-anilinopyrido[4,3-d]pyrimidine]
123 | Nc1cc2ncnc(Nc3cccc(Cl)c3)c2cn1 [Example 24, 7-Amino-4-(3-chloroanilino)pyrido[4,3-d]pyrimidine]
15 | Nc1cc2ncnc(Nc3cccc(C(F)(F)F)c3)c2cn1 [Example 31, 7-Amino-4-(3-trifluoromnethylanilino)pyrido[4,3-d]pyrimidine]
94 | Nc1cc2ncnc(Nc3ccc(Br)cc3)c2cn1 [Example 28, 7-Amino-4-(4-bromoanilino)pyrido[4,3-d]pyrimidine]
134 | COc1cccc(Nc2ncnc3cc(N)ncc23)c1 [Example 15, 7-Amino-4-(3-methoxyanilino)pyrido[4,3-d]pyrimidine]
377 | Nc1cc2ncnc(Nc3ccc(Cl)c(Cl)c3)c2cn1 [Example 25, 7-Amino-4-(3,4-dichloroanilino)pyrido[4,3-d]pyrimidine]
39 | COc1cc2ncnc(Nc3cccc(Br)c3)c2cn1 [Example 37, 4-(3-Bromoanilino)-7-methoxypyrido[4,3-d]pyrimidine]

Same assay, conditions: Table 1, values in pM; read-out: EGF Receptor Tyrosine Kinase Inhibition IC50

IC50 [nM] | SMILES
0.091 | CN(C)c1cc2ncnc(Nc3cccc(Br)c3)c2cn1 [Example 34, 4-(3-Bromoanilino)-7-dimethylaminpyrido[4,3-d]pyrimidine]
0.13 | CNc1cc2ncnc(Nc3cccc(Br)c3)c2cn1 [Example 33, 4-(3-Bromoanilino)-7-methylaminopyrido[4 3-d]pyrimidine]

Same assay, conditions: Table 1, values printed in μM; read-out: EGF Receptor Tyrosine Kinase Inhibition IC50

SMILES | IC50 [nM]
c1ccc(Nc2ncnc3cccnc23)cc1 [Example 1, 4-Anilinopyrido[3,2-d]pyrimidine Mesylate] | 8000
CNc1ncc2c(NCc3ccccc3)ncnc2n1 [Example 69, 4-Benzylamino-7-methylaminopyrimido[4,5-d]pyrimidine] | 7000
Brc1cccc(Nc2ncnc3ncccc23)c1 [Example 63, 4-(3-Bromoanilino)pyrido[2,3-d]pyrimidine] | 6100
Nc1cc2ncnc(NCc3ccc(Br)cc3)c2cn1 [Example 49, 7-Amino-4-(4-bromobenzylamino)pyrido[4,3-d]pyrimidine] | 2500
c1ccc(CNc2ncnc3nc[nH]c23)cc1 [Example 76, N^6-Benzyladenine] | 10000
Nc1cc2ncnc(NCc3cccc(C(F)(F)F)c3)c2cn1 [Example 51, 7-Amino-4-(3-trifluoromethylbenzylamino)pyrido[4,3-d]pyrimidine] | 1950
c1ccc(CNc2ncnc3cnccc23)cc1 [Example 62, 4-(Benzylamino)pyrido[3,4-d]pyrimidine] | 6100
Clc1ccc2ncnc(Nc3cccc(Br)c3)c2n1 [Example 5, 4-(3-Bromoanilino)-6-chloropyrido[3,2-d]pyrimidine] | 1900
c1ccc(Nc2ncnc3ccncc23)cc1 [Example 10, 4-Anilinopyrido[4,3-d]pyrimidine] | 6100
CN(C)c1ccc2c(Nc3cccc(Br)c3)ncnc2n1 [Example 67, 4-(3-Bromoanilino)-7-dimethylaminopyrido[2,3-d]pyrimidine] | 6100
Nc1cc2ncnc(NCc3cccs3)c2cn1 [Example 53, 7-Amino-4-(thien-2-ylmethylamino)[4,3-d]pyrimidine Dimesylate] | 1800

The next lines start with the values.

IC50 [nM] | SMILES
1000 | Nc1cc2ncnc(NCc3cccc(Br)c3)c2cn1 [Example 48, 7-Amino-4-(3-bromobenzylamino)pyrido[4,3-d]pyrimidine]
1670 | Nc1cc2ncnc(NCc3ccccc3Br)c2cn1 [Example 47, 7-Amino-4-(2-bromobenzylamino)pyrido[4,3-d]pyrimidine]
3700 | COc1ccccc1Nc1ncnc2cc(N)ncc12 [Example 16, 7-Amino-4-(2-methoxyanilino)pyrido[4,3-d]pyrimidine]
4900 | CN(C)c1ccc(Nc2ncnc3cc(N)ncc23)cc1 [Example 20, 7-Amino-4-(4-dimethylaminoanilino)pyrido[4,3-d]pyrimidine]
10000 | Nc1cc2ncnc(NCc3cccc([N+](=O)[O-])c3)c2cn1 [Example 44, 7-Amino-4-(3-nitrobenzylamino)pyrido[4,3-d]pyrimidine]
1800 | CN(C)c1cccc(Nc2ncnc3cc(N)ncc23)c1 [Example 19, 7-Amino-4-(3-dimethylaminoanilino)pyrido [4,3-d]pyrimidine]
4700 | Nc1cc2ncnc(Nc3ccc(C(F)(F)F)cc3)c2cn1 [Example 32, 7-Amino-4-(4-trifluoromethylanilino)3pyrido[4,3-d]pyrimidine]
10000 | Nc1cc2ncnc(NCc3ccccc3C(F)(F)F)c2cn1 [Example 50, 7-Amino-4-(2-trifluoromethylbenzylamino)pyrido[4,3-d]pyrimidine]
1420 | Nc1cc2ncnc(NCc3ccc(Cl)cc3)c2cn1 [Example 46, 7-Amino-4-(4-chlorobenzylamino)pyrido[4,3-d]pyrimidine Mesylate]
2870 | COc1cccc(CNc2ncnc3cc(N)ncc23)c1 [Example 45, 7-Amino-4-(3-methoxybenzylamino)pyrido[4,3-d]pyrimidine]
10000 | CN(C)c1cccc(CNc2ncnc3cc(N)ncc23)c1 [Example 43, 7-Amino-4-(3-dimethylaminobenzylamino)pyrido[4,3-d]-pyrimidine]

Reference: patent US6521620B1, “Bicyclic compounds capable of inhibiting tyrosine kinases of the epidermal growth factor receptor family” (Warner-Lambert Company, priority 1994, dated 2003)
